From patent US20080227688A1, “Inhibition of viral replication” (priority 2007, published 2008)
“Also recorded” adds a separate entry of the source. *1 amine or outer side, *2 acyl side, *3 side chain or, on linkers, in order; H or OH if unused. Where a SMILES comes first, the peptide text is derived from it. [ ]: non-standard residue; d: D form. The star is where a group is joined. hPhe = N[CH](CCc1ccccc1)C(=O)O; Morpholide = C1CN(*)CCO1; CO = O=C([*:1])[*:2]; CH2F = FC*

Tests used:
reovirus [1] = conditions: pharmacological inhibition of cellular cathepsin B; cited from earlier work
reovirus [2] = assay type: cell-based, Dearing strain of reovirus serotype 3
HIV type 1 virus = assay type: cell-based, HIV type 1 strain (NL4-3)
reovirus [3] = assay: HT1080 tumor xenograft in SCID mice with intratumoral reovirus, immunohistochemistry of tumor and heart; assay type: in vivo; conditions: 0.02 mg intratumorally, 16 days post-viral injection
Protocol: FIGS. 4A-4B: Z-FA-FMK blocks reovirus infection in vivo. (FIG. 4A) HT1080 cells were injected subcutaneously into hind flanks of SCID mice. After palpable tumors were established (11 days after implantation), tumors were injected with Live reovirus (L Reo; n=5 tumors), UV-inactivated reovirus (D Reo; n=5 tumors), Z-FA-FMK (FA; n=5 tumors) and Live reovius suspended in Z-FA-FMK solution (Reo+FA; n=5 tumors). Tumor growth was measured externally using calipers. Z-FA-FMK was dissolved in DMSO and administered as 0.02 mg suspended in PBS intratumorally per mouse everyday up to 7 days post viral injection, and every 2 days until completion of the experiment. […] Paraffin sections of tumors and heart tissues were analyzed by indirect immunohistochemical staining using reovirus antiserum as described in the Examples. […]
SCID mice (6-8 weeks, Charles River, Wilmington, Mass.) received a single subcutaneous implantation of 5×10^6 cells of HT1080 cells suspended in PBS. […] Tumor growth was measured externally using calipers and the volume was determined by the equation V=(L×W^2)×0.5, where L is the largest dimension and W is the largest dimension perpendicular to L. Z-FA-FMK was dissolved in DMSO and administered as 0.02 mg suspended in PBS intratumorally per mouse every day up to 7 days post viral injection, and every 2 days until completion of the experiment. […]

cellular cathepsin B = cellular cathepsin B (Homo sapiens, UniProt P07858); conditions: cited from earlier work
myxoma virus = assay type: cell-based, myxoma virus (strain Lausanne)
reovirus [4] = assay: Electron microscopy of reovirus-infected HT1080 cells; assay type: cell-based, Dearing strain of reovirus serotype 3; conditions: HT1080, MOI of 40, 20 μM, 48 hr post-infection
Protocol: FIGS. 2A-2B: Electron microscopic analysis of reovirus infected HT1080 cells in the presence or absence of Z-FA-FMK treatment. HT1080 cells grown to 50-70% confluency were infected with reovirus at MOI of 40, then either Z-FA-FMK (20 μM) or control medium was added in the culture medium. After 48 hr culture, cells were prepared for electron microscopic examination as described in the Examples. (FIG. 2A) HT1080 infected with reovirus in the absence of Z-FA-FMK showing scattered virions and viral inclusions (factory) (arrows) in the perinuclear region. Scale represents 500 nm×10,000 (above). […] Scale represents 100 nm×80,000 (FIG. 2B) HT1080 infected with reovirus in the presence of Z-FA-FMK showing scattered reovirus virion particles (arrows) but no reoviral inclusions in the perinuclear region. Scale represents 500 nm×10,000 (above). Scattered virions with empty shell (arrows) are present in perinuclear region (bottom). Scale represents 200 nm×40,000.
EM preparation was performed by the University of Calgary Microscopy & Imaging Facility. Cells grown on glass slides were rinsed briefly with PBS (phosphate buffered saline) and fixed with 4% EM grade glutaraldehyde in 0.1 M cacodylate buffer (pH 7.4) for 1 hr at room temperature (RT). After washing three times with the same buffer, cells were post-fixed in 1% osmium tetroxide buffered with 0.1 M cacodylate for 1 hr at RT. […]

influenza A virus = assay: Influenza A infection of Mv1Lu cells, FACS; assay type: cell-based, Flu type A (A/New Cale/H1N1); conditions: 20 μM, 4 days

**Q.** Which reovirus viral yield (reovirus [1]) does the source give for `CCCNC(=O)[C@H]1O[C@@H]1C(=O)N[C@H](C(=O)N1CCC[C@H]1C(=O)OC)[C@@H](C)CC` [CA-074Me] here?
**A.** decreased viral yields yet not a complete blockage of viral yield

**Q.** With `O=C(CF)C(CCc1ccccc1)NC(=O)C(Cc1ccccc1)NC(=O)N1CCOCC1` (stereo not drawn) [Mu-FhF-FMK, N-Morpholineurea-phenylalanyl-homophenylalanyl-fluoromethylketone] ({Morpholide-CO}-Phe-[hPhe]-CH2F; configuration not given here) as the compound, how does the reovirus-mediated cytopathogenicity (reovirus [2]) read?
**A.** effectively inhibited reovirus-mediated cytopathogenicity

**Q.** Which “viral replication activity of HIV-1” value (HIV type 1 virus) does the source give for `C[C@H](NC(=O)[C@H](Cc1ccccc1)NC(=O)OCc1ccccc1)C(=O)CF` [Z-FA-FMK, N-benzyloxycarbonyl-Phe-Ala-fluoromethylketone] here?
**A.** did not affect viral replication activity

**Q.** And the “reoviral replication potential by FACS (reoviral antigen)” value (reovirus [2])?
**A.** effectively suppressed reoviral replication potential in a dose-dependent manner

**Q.** What about the “reovirus replication (cytopathic morphology, viral antigens by western blotting and FACS)” value (reovirus [2]) of the same compound?
**A.** completely blocked reovirus replication

**Q.** What about the “reovirus replication activity in heart tissue (immunohistochemistry)” value (reovirus [3]) of the same compound?
**A.** effectively blocked

**Q.** And the “reovirus replication activity in tumor tissue (immunohistochemistry)” value (reovirus [3])?
**A.** effectively blocked

**Q.** What about the “inactivation of cathepsin B” value (cellular cathepsin B) of the same compound?
**A.** potent inactivator of cellular cathepsin B

**Q.** And the “GFP expression level of BGMK monolayers” value (myxoma virus)?
**A.** significantly suppressed

**Q.** What about the “myxoma infectivity (GFP expressing cells)” value (myxoma virus) of the same compound?
**A.** inhibitory effects were not detectable

**Q.** And the “myxoma virus foci development” value (myxoma virus)?
**A.** significantly suppressed as Z-FA-FMK dosages were increased; also recorded: the inhibition of foci development is more readily detectable

**Q.** What about the “viral factory formation (EM)” value (reovirus [4]) of the same compound?
**A.** did not form these viral factories

**Q.** What about the “virion morphology (EM)” value (reovirus [4]) of the same compound?
**A.** all of the scattered viral particles contained empty capsids

**Q.** What about the “viral replication activity of influenza A” value (influenza A virus) of the same compound?
**A.** did not affect viral replication activity

**Q.** With “Z-Val-Ala-Asp-fluoromethylketone [Z-VAD-FMK]” as the compound, how does the reovirus-mediated cytopathogenicity (reovirus [2]) read?
**A.** effectively inhibited reovirus-mediated cytopathogenicity
